This note sets out measurements from patent US11497212B2, “Substituted thiophenyl uracils, salts thereof and the use thereof as herbicidal agents” (Syngenta Crop Protection AG, priority 2017, dated 2022).

Format in all cases: in vivo
In one data set the test system is Digitaria sanguinalis. Put plainly: Herbicidal action post-emergence (greenhouse pot trial). To be noted: application rate 20 g/ha. The procedure, abridged: (§1)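 Sowing in sandy loam, then 2–3 weeks of controlled greenhouse growth. Next, one-leaf-stage plants received a foliar spray of the WP- or EC-formulated compound with 0.5% additive (600 L/ha water, application rate of 80 g/ha or below). Finally, after about 3 weeks under optimal conditions, effect was judged by eye against controls.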

Another data set has as its system Veronica persica. The data set is described as above. To be noted: application rate 20 g/ha. The procedure, abridged:
as §1

The next data set has as its system Echinochloa crus-galli. The description is as above. To be noted: application rate 20 g/ha, scored visually after about 3 weeks vs untreated controls. In outline:
as §1

For a further data set, the system named is Stellaria media. The data set is described as above. To be noted: application rate 20 g/ha, scored visually after about 3 weeks vs untreated controls. In outline:
as §1

For the next data set, the system named is Viola tricolor. The description is as above. To be noted: application rate 20 g/ha. In outline:
as §1

In another data set the test system is Setaria viridis. Described as above. To be noted: application rate 20 g/ha, scored visually after about 3 weeks vs untreated controls. In outline: as §1
A further data set relates to Matricaria inodora. The data set is described as above. To be noted: application rate 20 g/ha, scored visually after about 3 weeks vs untreated controls. In outline: as §1
For the next data set, the system named is Abutilon theophrasti. The description is as above. To be noted: application rate 20 g/ha, scored visually after about 3 weeks vs untreated controls. The procedure, abridged:
as §1

In the next data set the test system is Polygonum convolvulus. The description is as above. To be noted: application rate 20 g/ha, scored visually after about 3 weeks vs untreated controls. In outline:
as §1

Another data set deals with Hordeum murinum. The description is as above. To be noted: application rate 20 g/ha, scored visually after about 3 weeks vs untreated controls. The procedure, abridged: as §1
A further data set relates to Pharbitis purpurea. The data set is described as above. To be noted: application rate 20 g/ha. In outline: as §1
Another data set concerns Amaranthus retroflexus. The description is as above. To be noted: application rate 20 g/ha, scored visually after about 3 weeks vs untreated controls. In outline: as §1
The subject of another data set is Triticum aestivum. Nature of the data set: Crop compatibility post-emergence (greenhouse pot trial). The procedure, abridged: (§2)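 Visual % rating about 3 weeks post-treatment against untreated plants (100% dead, 0% unaffected). Post-emergence spray of aqueous WP/EC preparations with 0.5% additive at 600 L/ha water, applied at one-leaf stage to greenhouse pot-grown crops in sandy loam.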

Another data set relates to Alopecurus myosuroides. Nature of the data set: Herbicidal action post-emergence (greenhouse pot trial). To be noted: application rate 20 g/ha, scored visually after about 3 weeks vs untreated controls. In outline: as §1
For another data set, the system named is Oryza sativa. Nature of the data set: Crop compatibility post-emergence (greenhouse pot trial). To be noted: application rate 20 g/ha. In outline:
as §2

Another data set deals with Zea mays. The description is as above. To be noted: application rate 5 g/ha. The procedure, abridged:
as §2

The next data set relates to Glycine max. The description is as above. To be noted: application rate 5 g/ha. The procedure, abridged: as §2

As for `CC(Sc1cc(-n2c(=O)cc(C(F)(F)F)n(C)c2=O)c(F)cc1Cl)C(=O)OCCCSC(F)(F)F` (stereo not drawn) [I.1-48], the “Digitaria sanguinalis (Efficacy in %)” value in the data set with Digitaria sanguinalis came out at 100%. Besides, the “Veronica persica (Efficacy in %)” value with Veronica persica was determined as 100%. For the same molecule, the “Echinochloa crus-galli (Efficacy in %)” value in the data set with Echinochloa crus-galli amounted to 100%. Further, in the data set on Stellaria media, the “Stellaria media (Efficacy in %)” value is reported as 100%. Besides, the “Viola tricolor (Efficacy in %)” value with Viola tricolor turned out to be 100%. The “Setaria viridis (Efficacy in %)” value with Setaria viridis worked out at 100%. Further, in the data set on Matricaria inodora, the “Matricaria inodora (Efficacy in %)” value is given as 100%. In addition, the “Abutilon theophrasti (Efficacy in %)” value with Abutilon theophrasti is 100%. Further, the “Polygonum convolvulus (Efficacy in %)” value with Polygonum convolvulus was 100%. Further, the “Hordeum murinum (Efficacy in %)” value in the data set with Hordeum murinum is 80%. Further, in the data set with Pharbitis purpurea, the “Pharbitis purpurea (Efficacy in %)” value was determined as 100%. For the same molecule, the “Amaranthus retroflexus (Efficacy in %)” value with Amaranthus retroflexus is 100%. Further, the “Triticum aestivum (Efficacy in %)” value with Triticum aestivum (application rate 5 g/ha) is 10%.

With `CCC(Sc1cc(-n2c(=O)c(C)c(C(F)(F)F)n(C)c2=O)c(F)cc1Cl)C(=O)OCC1CCCCO1` (stereo not drawn) [I.12-91], the “Veronica persica (Efficacy in %)” value in the data set on Veronica persica was determined as 100%. The “Echinochloa crus-galli (Efficacy in %)” value with Echinochloa crus-galli is 100%. Moreover, the “Stellaria media (Efficacy in %)” value with Stellaria media came to 100%. Also, the “Viola tricolor (Efficacy in %)” value in the data set on Viola tricolor turned out to be 100%. The “Setaria viridis (Efficacy in %)” value in the data set on Setaria viridis is 80%. For the same molecule, the “Matricaria inodora (Efficacy in %)” value with Matricaria inodora was found to be 80%. Further, the “Alopecurus myosuroides (Efficacy in %)” value in the data set with Alopecurus myosuroides is 80%. In addition, in the data set on Abutilon theophrasti, the “Abutilon theophrasti (Efficacy in %)” value was 100%. The “Polygonum convolvulus (Efficacy in %)” value in the data set with Polygonum convolvulus was 80%. The “Pharbitis purpurea (Efficacy in %)” value in the data set on Pharbitis purpurea is 100%. Besides, the “Amaranthus retroflexus (Efficacy in %)” value in the data set with Amaranthus retroflexus came out at 100%. Further, the “Oryza sativa (Efficacy in %)” value in the data set on Oryza sativa is recorded as 0%. Besides, the “Zea mays (Efficacy in %)” value in the data set with Zea mays stood at 0%. Further, the “Glycine max (Efficacy in %)” value in the data set on Glycine max was 0%. The “Triticum aestivum (Efficacy in %)” value in the data set on Triticum aestivum (application rate 5 g/ha) is reported as 0%.

Regarding `CC(C)C(Sc1cc(-n2c(=O)cc(C(F)(F)F)n(C)c2=O)c(F)cc1Cl)C(=O)OCC1CCCO1` (stereo not drawn) [I.6-71], the “Digitaria sanguinalis (Efficacy in %)” value in the data set on Digitaria sanguinalis was determined as 100%. Besides, in the data set on Veronica persica, the “Veronica persica (Efficacy in %)” value is 100%. The “Echinochloa crus-galli (Efficacy in %)” value in the data set with Echinochloa crus-galli is 90%. Besides, in the data set with Stellaria media, the “Stellaria media (Efficacy in %)” value was 100%. Further, in the data set with Viola tricolor, the “Viola tricolor (Efficacy in %)” value was found to be 100%. Also, the “Setaria viridis (Efficacy in %)” value in the data set on Setaria viridis was determined as 100%. In addition, the “Matricaria inodora (Efficacy in %)” value in the data set on Matricaria inodora worked out at 100%. Also, the “Alopecurus myosuroides (Efficacy in %)” value with Alopecurus myosuroides was determined as 80%. Moreover, the “Abutilon theophrasti (Efficacy in %)” value in the data set with Abutilon theophrasti was found to be 100%. Besides, the “Polygonum convolvulus (Efficacy in %)” value in the data set on Polygonum convolvulus is 100%. Besides, the “Hordeum murinum (Efficacy in %)” value in the data set on Hordeum murinum was determined as 80%. Moreover, in the data set on Pharbitis purpurea, the “Pharbitis purpurea (Efficacy in %)” value is 100%. Besides, the “Amaranthus retroflexus (Efficacy in %)” value in the data set with Amaranthus retroflexus worked out at 100%. In addition, the “Triticum aestivum (Efficacy in %)” value in the data set on Triticum aestivum (application rate 20 g/ha) turned out to be 20%.
